Data taken from patent US7811352B2, “Fertilizer compositions and methods of using” (priority 2005, dated 2010).

Experiments:
[1] = tested on: ultra-dwarf Bermuda grass; experiment: Turfgrass quality and color ratings, ultra-dwarf Bermuda grass greens (Example 11); type: in vivo; set-up: key: 1-10 scale: 10 = dark green, 6 = initially acceptable, 1 = dead/brown; settings: scale 1-10
Excerpt: In this Example, the effect of a fertilizer comprising lysine on warm season turfgrass growth was examined. The effects of lysine (HCl) and LIQUID LYSINE on a common type of golf course greens quality turfgrass (ultra-dwarf Bermuda grass) were compared with those of urea and Milorganite.
Twelve fertilizer treatments comprising three concentrations of each fertilizer composition (Milorganite (N—P—K, 6-2-0), urea (N—P—K, 46-0-0), LIQUID LYSINE (N—P—K, 10-2-1), and lysine (HCl) (N—P—K, 15-2-1)) were prepared and applied to 3 replications of ultra-dwarf Bermuda grass. The lysine (HCl) was dissolved in water prior to application. Each fertilizer treatment was applied in concentrations of 0.125 lb N/1000 ft^2/week, 0.25 lb N/1000 ft^2/week and 0.75 lb N/1000 ft^2/week. The urea, LIQUID LYSINE and lysine (HCl) were applied as foliar liquids, while Milorganite was applied as a granular fertilizer. Plot size was 1 m×1 m set up as a randomized complete block. Plots were mowed at 0.125 inches before fertilizer application. Irrigation (0.15 inch) was applied following application. Plots were rated for turfgrass quality and color (scale of 1-10 where 10=dark green turf, 1=dead/brown turf, and 6=initially acceptable turf) and phytotoxicity (scale of 0-5, where 5=worst, and 2=minimally objectionable) throughout the study period. Quality, color, and phytotoxicity were measured on 2 days before application (day −2) and day 2, day 5, day 15 and day 21 after application. All data was subject to statistical analysis and significant means were determined. Average turfgrass quality ratings for the treatments are presented in Table 12 and the quality results for application rates of 0.25 lb N/1000 ft^2/week are graphically presented in FIG. 6.

[2] = tested on: Pennlinks creeping bentgrass for greens; experiment: Phytotoxic injury rating, greens creeping bentgrass (Example 16); type: in vivo
Excerpt: In this Example, the effect of a fertilizer comprising lysine on cool season greens quality turfgrass growth was examined. The effects of lysine (HCl) and LIQUID LYSINE on a common type of golf course greens quality turfgrass (Pennlinks creeping bentgrass for greens, mown at 0.1875 in height of cut) were compared with those of urea, Milorganite and a blended fertilizer (a blend of methylene urea and urea in an approximately 1:1 ratio).
Fifteen fertilizer treatments comprising three concentrations of each fertilizer composition (Milorganite (N—P—K, 6-2-0), urea (N—P—K, 46-0-0), a blended fertilizer, LIQUID LYSINE N—P—K, 10-2-1), and lysine (HCl) (N—P—K, 15-2-1)) were prepared and applied to 3 replications of well established Pennlinks creeping bentgrass mown to 0.1875 in height cut. The urea, lysine (HCl), and LIQUID LYSINE were dissolved/suspended in 1.5 gal water prior to application. Each fertilizer treatment was applied in concentrations of 0.125 lb N/1000 ft^2/week, 0.250 lb N/1000 ft^2/week and 0.750 lb N/1000 ft^2/week. The urea, LIQUID LYSINE and lysine (HCl) were applied as foliar liquids, while Milorganite and blended fertilizer were applied as granular fertilizers. Plot size was 4 ft×8 ft laid out in a replicated complete block design. Plots were mowed at 0.1875 inches height before fertilizer application and mowed five times per week to 0.1875 inch height. Grass clippings were removed from the plots after each mowing. Irrigation (0.15 inch) was applied following application and daily thereafter. Plots were rated for turfgrass quality (scale of 1-9 where 9=dark green turf, 1=dead/brown turf, and 6=minimally acceptable turf) and phytotoxic injury (scale of 0-9 where 9=significant foliar injury and 2=minimally objectionable foliar injury) throughout the study period. Quality was measured prior to application (day 0) and day 37, day 70 and day 95 after application. Injury was measured on day 37, day 70 and day 95 after application. Ai) additional set of turfgrass plots were fertilized with three treatments of a soy concentrate fertilizer with the same application rates and methods. The quality and phytotoxic injury of the soy concentrate fertilizer plots were measured on day 95. All data was subject to statistical analysis and significant means were determined.

[3] = Weekly Rate 0.125 lbs N/1000 ft^2, Day 2
[4] = Weekly Rate 0.125 lbs N/1000 ft^2, Day 5
[5] = Weekly Rate 0.125 lbs N/1000 ft^2, Day 15
[6] = Weekly Rate 0.125 lbs N/1000 ft^2, Day 21
[7] = Weekly Rate 0.125 lbs N/1000 ft^2, Day −2 (before application)
[8] = Weekly Rate 0.25 lbs N/1000 ft^2, Day 2
[9] = Weekly Rate 0.25 lbs N/1000 ft^2, Day 5
[10] = Weekly Rate 0.25 lbs N/1000 ft^2, Day 15
[11] = Weekly Rate 0.25 lbs N/1000 ft^2, Day 21
[12] = Weekly Rate 0.25 lbs N/1000 ft^2, Day −2 (before application)
[13] = Weekly Rate 0.75 lbs N/1000 ft^2, Day 2
[14] = Weekly Rate 0.75 lbs N/1000 ft^2, Day 5
[15] = Weekly Rate 0.75 lbs N/1000 ft^2, Day 15
[16] = Weekly Rate 0.75 lbs N/1000 ft^2, Day 21
[17] = Weekly Rate 0.75 lbs N/1000 ft^2, Day −2 (before application)
[18] = Weekly Rate 0.125 lbs N/1000 ft^2, Day 37
[19] = Weekly Rate 0.125 lbs N/1000 ft^2, Day 70
[20] = Weekly Rate 0.125 lbs N/1000 ft^2, Day 95
[21] = Weekly Rate 0.25 lbs N/1000 ft^2, Day 37
[22] = Weekly Rate 0.25 lbs N/1000 ft^2, Day 70
[23] = Weekly Rate 0.25 lbs N/1000 ft^2, Day 95
[24] = Weekly Rate 0.75 lbs N/1000 ft^2, Day 37
[25] = Weekly Rate 0.75 lbs N/1000 ft^2, Day 70
[26] = Weekly Rate 0.75 lbs N/1000 ft^2, Day 95

| Structure (SMILES) | Color Rating - Dwarf Bermuda Grass [1, 3] | Quality Ratings - Dwarf Bermuda Grass [1, 3] | Color Rating - Dwarf Bermuda Grass [1, 4] | Quality Ratings - Dwarf Bermuda Grass [1, 4] | Color Rating - Dwarf Bermuda Grass [1, 5] | Quality Ratings - Dwarf Bermuda Grass [1, 5] | Color Rating - Dwarf Bermuda Grass [1, 6] | Quality Ratings - Dwarf Bermuda Grass [1, 6] | Color Rating - Dwarf Bermuda Grass [1, 7] | Quality Ratings - Dwarf Bermuda Grass [1, 7] | Color Rating - Dwarf Bermuda Grass [1, 8] | Quality Ratings - Dwarf Bermuda Grass [1, 8] | Color Rating - Dwarf Bermuda Grass [1, 9] | Quality Ratings - Dwarf Bermuda Grass [1, 9] | Color Rating - Dwarf Bermuda Grass [1, 10] | Quality Ratings - Dwarf Bermuda Grass [1, 10] | Color Rating - Dwarf Bermuda Grass [1, 11] | Quality Ratings - Dwarf Bermuda Grass [1, 11] | Color Rating - Dwarf Bermuda Grass [1, 12] | Quality Ratings - Dwarf Bermuda Grass [1, 12] | other results |
| --- | --- | --- | --- | --- | --- | --- | --- | --- | --- | --- | --- | --- | --- | --- | --- | --- | --- | --- | --- | --- | --- |
| Cl.NCCCC[C@H](N)C(=O)O [Lys (HCl) 15% N, L-lysine monohydrochloride] | 7.2bc | 7.3bcd | 7.0cd | 6.7de | 6.8c-f | 6.3ef | 6.5cd | 6.2cd | 6.8 | 6.8 | 7.2bc | 7.2cd | 7.2bcd | 7.2cd | 7.2bcd | 7.2abc | 7.3ab | 7.2ab | 7.0 | 6.5 | Color Rating - Dwarf Bermuda Grass [1, 13]: 7.3abc; Quality Ratings - Dwarf Bermuda Grass [1, 13]: 7.5abc; Color Rating - Dwarf Bermuda Grass [1, 14]: 7.2bcd; Quality Ratings - Dwarf Bermuda Grass [1, 14]: 7.5bc; Color Rating - Dwarf Bermuda Grass [1, 15]: 7.7ab; Quality Ratings - Dwarf Bermuda Grass [1, 15]: 7.3abc; Color Rating - Dwarf Bermuda Grass [1, 16]: 7.2b; Quality Ratings - Dwarf Bermuda Grass [1, 16]: 6.8abc; Color Rating - Dwarf Bermuda Grass [1, 17]: 6.7; Quality Ratings - Dwarf Bermuda Grass [1, 17]: 6.5; Injury Rating - Greens Bentgrass [2, 18]: 1.0b; Injury Rating - Greens Bentgrass [2, 19]: 1.0; Injury Rating - Greens Bentgrass [2, 20]: 2.3ab; Injury Rating - Greens Bentgrass [2, 21]: 1.0b; Injury Rating - Greens Bentgrass [2, 22]: 1.0; Injury Rating - Greens Bentgrass [2, 23]: 2.7ab; Injury Rating - Greens Bentgrass [2, 24]: 2.0a; Injury Rating - Greens Bentgrass [2, 25]: 1.3; Injury Rating - Greens Bentgrass [2, 26]: 2.3ab |
| NC(N)=O [Urea, urea, reference compound] | 7.7ab | 7.7abc | 7.7ab | 7.5bc | 7.2bcd | 7.0bcd | 6.8bc | 6.7abc | 7.0 | 6.5 | 7.7ab | 7.7abc | 7.3abc | 7.5bc | 7.3bc | 7.0bcd | 7.3ab | 6.8abc | 6.7 | 6.3 | Color Rating - Dwarf Bermuda Grass [1, 13]: 7.8a; Quality Ratings - Dwarf Bermuda Grass [1, 13]: 8.2a; Color Rating - Dwarf Bermuda Grass [1, 14]: 7.8a; Quality Ratings - Dwarf Bermuda Grass [1, 14]: 8.3a; Color Rating - Dwarf Bermuda Grass [1, 15]: 8.0a; Quality Ratings - Dwarf Bermuda Grass [1, 15]: 7.5ab; Color Rating - Dwarf Bermuda Grass [1, 16]: 7.8a; Quality Ratings - Dwarf Bermuda Grass [1, 16]: 7.3a; Color Rating - Dwarf Bermuda Grass [1, 17]: 6.8; Quality Ratings - Dwarf Bermuda Grass [1, 17]: 6.3; Injury Rating - Greens Bentgrass [2, 18]: 1.0b; Injury Rating - Greens Bentgrass [2, 19]: 1.3; Injury Rating - Greens Bentgrass [2, 20]: 3.0ab; Injury Rating - Greens Bentgrass [2, 21]: 1.0b; Injury Rating - Greens Bentgrass [2, 22]: 1.0; Injury Rating - Greens Bentgrass [2, 23]: 2.0ab; Injury Rating - Greens Bentgrass [2, 24]: 1.0b; Injury Rating - Greens Bentgrass [2, 25]: 1.0; Injury Rating - Greens Bentgrass [2, 26]: 2.7ab |
